Assay results reported in ChEMBL document CHEMBL4813933, “Discovery of Thanafactin A, a Linear, Proline-Containing Octalipopeptide from Pseudomonas sp. SH-C52, Motivated by Genome Mining” (J Nat Prod, 2021).
The source made the active and inactive calls.

Assays:
[1] = tested on: Chromobacterium violaceum; assay: Inhibition of quorum sensing system in Chromobacterium violaceum CV026 assessed as reduction in swarming motility at 1 mg/ml measured after 1 hr
Staphylococcus aureus = assay: Inhibition of quorum sensing system in Staphylococcus aureus PC322 assessed as reduction in swarming motility at 1 mg/ml measured after 1 hr
[2] = molecular target: T1, Cathepsin K (Homo sapiens) (UniProt P43235); assay: Inhibition of human cathepsin K at 10 uM using Z-Leu-Arg-AMC as substrate incubated for 60 mins by fluorometric assay
T1 sequence (whole entry): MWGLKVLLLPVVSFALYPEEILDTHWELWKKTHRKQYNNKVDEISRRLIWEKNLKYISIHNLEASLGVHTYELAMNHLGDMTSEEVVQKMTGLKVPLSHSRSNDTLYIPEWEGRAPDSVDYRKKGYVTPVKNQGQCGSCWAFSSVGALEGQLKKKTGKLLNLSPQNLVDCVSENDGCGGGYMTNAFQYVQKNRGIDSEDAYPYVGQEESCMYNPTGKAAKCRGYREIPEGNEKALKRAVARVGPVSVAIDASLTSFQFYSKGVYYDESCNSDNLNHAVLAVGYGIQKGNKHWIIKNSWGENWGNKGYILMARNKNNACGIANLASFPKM

Measured: inhibition

CCCCCCC[C@@H](O)CC(=O)N[C@@H](C(=O)N[C@H](C)C(=O)N[C@H](CCC(N)=O)C(=O)N[C@@H](C)C(=O)N[C@@H](C(=O)N[C@@H](C)C(=O)N1CCC[C@H]1C(=O)N[C@H](C(=O)O)[C@@H](C)O)C(C)C)C(C)C
inactive: [1] | Staphylococcus aureus | [2]
